{"source": "paper PMC5218480", "about": "(PLoS ONE, 2017)", "system": "MV-4-11 cells", "test": "Gene expression microarray analysis (Affymetrix PrimeView) and GSEA", "format": "cell-based, human", "settings": "ProbeSet 11733176_x_at; LIST B"}
{"molecule": "Nc1ccc(-c2cccs2)cc1NC(=O)c1ccc2c(c1)cc(C1CC1)n2CCN1CCOCC1", "note": "[ACY-1035]", "values": [{"measurement": "RFU, ZNF507", "value": 24.05, "unit": "RFU"}]}
